Experimental data as given in paper PMC4392609, “Interactions of antiretroviral drugs with the SLC22A1 (OCT1) drug transporter” (Frontiers in Pharmacology, 2015).
pIC50: −log10 of the molar value. Values joined by “and” are separate entries in the source; they are usually repeats but may differ in a detail not shown here. Equal values may be shown once. Read-outs that look alike come from different tables or passages of the source.

How the values were obtained:
[1] = molecular target: T1, SLC22A1 (Homo sapiens, UniProt O15245); assay: Tetraethylammonium accumulation in SLC22A1-overexpressing KCL22 cells co-incubated with 50 μM test drug; conditions: for Reduction in cellular accumulation (of tetraethylammonium): 50 μM drug, SLC22A1-overexpressing KCL22 cells
T1 sequence (O15245 1-554): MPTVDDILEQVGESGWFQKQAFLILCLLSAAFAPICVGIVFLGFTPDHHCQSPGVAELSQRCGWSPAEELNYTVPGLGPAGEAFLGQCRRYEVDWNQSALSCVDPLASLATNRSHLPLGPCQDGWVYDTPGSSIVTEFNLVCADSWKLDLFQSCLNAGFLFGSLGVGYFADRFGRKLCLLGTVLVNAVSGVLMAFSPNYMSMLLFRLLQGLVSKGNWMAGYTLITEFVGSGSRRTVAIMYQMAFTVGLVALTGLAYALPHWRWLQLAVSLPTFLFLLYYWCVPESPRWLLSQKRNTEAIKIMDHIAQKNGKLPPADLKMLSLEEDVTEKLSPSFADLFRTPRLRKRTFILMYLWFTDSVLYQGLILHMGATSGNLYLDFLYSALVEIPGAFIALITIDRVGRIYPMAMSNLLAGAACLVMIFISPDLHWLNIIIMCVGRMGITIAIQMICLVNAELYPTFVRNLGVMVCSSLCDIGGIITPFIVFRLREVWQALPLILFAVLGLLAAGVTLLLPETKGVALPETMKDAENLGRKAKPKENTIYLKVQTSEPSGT

[2] = molecular target: T1, SLC22A1; set-up: expressed in transfected cells; method as in Jung et al., 2008; conditions: 1-methyl-4-phenylpyridinium as substrate, HEK-293 cells, 1 min incubation; efavirenz assessed only at 5 μM; ref Jung et al., 2008; cited from earlier work
[3] = molecular target: T1, SLC22A1; assay: SLC22A1 IC50 determination (inhibition of tetraethylammonium accumulation over a concentration range); assay type: cell-based; set-up: expressed in transfected cells; conditions: for TEA accumulation when 100 μM inhibitor used (%compared to inhibitor-free control): tetraethylammonium 5.5 μM, 30 min
[4] = molecular target: T1, SLC22A1; conditions: 30 min
From the text: Using intracellular radioactivity readings, the amount of drug in mock transfected cells was compared to SLC22A1-overexpressing KCL22 cells (% ± SD).

[5] = ref Villani et al., 1999; cited from earlier work
[6] = molecular target: T1, SLC22A1; set-up: expressed in transfected cells; method as in Zhang et al., 2000; conditions: ref Zhang et al., 2000; cited from earlier work
[7] = SLC22A1-overexpressing KCL22 cells, 100 μM inhibitor

SMILES: Cc1cc(C#N)cc(C)c1Oc1nc(Nc2ccc(C#N)cc2)nc(N)c1Br [etravirine]
- Reduction in cellular accumulation (of tetraethylammonium) [1]: 22.5%

SMILES: Nc1ccn([C@@H]2CS[C@H](CO)O2)c(=O)n1 [lamivudine]
- SLC22A1 inhibition in vitro [2]: significant inhibition

SMILES: COc1cc2nc(N3CCN(C(=O)c4ccco4)CC3)nc(N)c2cc1OC [prazosin]
- Reduction in cellular tetraethylammonium accumulation ([3]; 100 μM inhibitor, SLC22A1-overexpressing KCL22 cells): 84%
- TEA accumulation when 100 μM inhibitor used (%compared to inhibitor-free control) [3, 7]: 16.1%
- pIC50 ([3]; read-out: Absolute IC50): 5.55
- pIC50 ([3]; read-out: Relative IC50): 5.64

SMILES: O=C1Nc2ccc(Cl)cc2[C@@](C#CC2CC2)(C(F)(F)F)O1 [efavirenz]
- Accumulation in SLC22A1-expressing cells compared to mock-transfected cells (% higher) ([4]; human, 20 μM): 17%
- Amount of substrate in mock-transfected cells compared to SLC22A1-overexpressing cells (% less) ([4]; human, 20 μM): 17%
- TEA accumulation when 100 μM inhibitor used (%compared to inhibitor-free control) [3, 7]: 39.7%
- pIC50 ([3]; read-out: Absolute IC50): 4.66
- pIC50 ([3]; read-out: Relative IC50): 5.13
- Reduction in cellular accumulation (of tetraethylammonium) [1]: 50.0%
- Maximum plasma concentration of efavirenz [5]: 12.7 µM
- SLC22A1 inhibition in vitro [2]: did not show SLC22A1 inhibition

SMILES: Cc1cn([C@H]2C[C@H](N=[N+]=[N-])[C@@H](CO)O2)c(=O)[nH]c1=O [zidovudine]
- Tetraethylammonium concentration in cells after 30 min incubation [1]: 8.5 ± 3.1 µM

SMILES: Cc1c(O)cccc1C(=O)N[C@@H](CSc1ccccc1)[C@H](O)CN1C[C@H]2CCCC[C@H]2C[C@H]1C(=O)NC(C)(C)C [nelfinavir]
- Effect on tetraethylammonium accumulation in SLC22A1-overexpressing Hela cells [6]: able to reduce tetraethylammonium accumulation
- SLC22A1 inhibition in vitro [2]: inhibited

SMILES: Cc1ccnc2c1NC(=O)c1cccnc1N2C1CC1 [nevirapine]
- Reduction in cellular accumulation (of tetraethylammonium) [1]: 24.5%

SMILES: Cc1nnc(C(=O)NC(C)(C)c2nc(C(=O)NCc3ccc(F)cc3)c(O)c(=O)n2C)o1 [raltegravir]
- Tetraethylammonium concentration in cells after 30 min incubation [1]: 9.6 ± 1.4 µM

SMILES: CC(C)(C)NC(=O)[C@@H]1CN(Cc2cccnc2)CCN1C[C@@H](O)C[C@@H](Cc1ccccc1)C(=O)N[C@H]1c2ccccc2C[C@H]1O [indinavir]
- Effect on tetraethylammonium accumulation in SLC22A1-overexpressing Hela cells [6]: able to reduce tetraethylammonium accumulation

SMILES: CC[N+](CC)(CC)CC [tetraethylammonium]
- Amount of substrate in SLC22A1-overexpressing cells subjected to prazosin compared to SLC22A1-overexpressing cells (% less) ([4]; KCL22 cells, 100 μM prazosin, efavirenz 20 μM, darunavir 20 μM, tetraethylammonium 1 μM): 76%
- Amount of substrate in mock-transfected cells compared to SLC22A1-overexpressing cells (% less) ([4]; KCL22 cells, efavirenz 20 μM, darunavir 20 μM, tetraethylammonium 1 μM): 92%
- Tetraethylammonium cellular accumulation in mock transfected control KCL22 cells ([1]; tetraethylammonium 5.5 μM, 30 min, no inhibitor, mean ± SD, n = 3): 0.3 ± 0.04 µM and 0.3 ± 0.004 µM
- Tetraethylammonium cellular accumulation in SLC22A1-overexpressing KCL22 cells ([1]; tetraethylammonium 5.5 μM, 30 min, no inhibitor, mean ± SD, n = 9): 10.6 ± 0.8 µM

SMILES: Cc1cc(/C=C/C#N)cc(C)c1Nc1ccnc(Nc2ccc(C#N)cc2)n1 [rilpivirine]
- Reduction in cellular accumulation (of tetraethylammonium) [1]: 41.2%

SMILES: COC(=O)N[C@H](C(=O)N[C@@H](Cc1ccccc1)[C@@H](O)CN(Cc1ccc(-c2ccccn2)cc1)NC(=O)[C@@H](NC(=O)OC)C(C)(C)C)C(C)(C)C [atazanavir]
- SLC22A1 inhibition in vitro [2]: no SLC22A1-inhibiting capability

SMILES: CC(C)(C)NC(=O)[C@@H]1C[C@@H]2CCCC[C@@H]2CN1C[C@@H](O)[C@H](Cc1ccccc1)NC(=O)[C@H](CC(N)=O)NC(=O)c1ccc2ccccc2n1 [saquinavir]
- Effect on tetraethylammonium accumulation in SLC22A1-overexpressing Hela cells [6]: able to reduce tetraethylammonium accumulation

SMILES: CC(C)c1nc(CN(C)C(=O)N[C@H](C(=O)N[C@@H](Cc2ccccc2)C[C@H](O)[C@H](Cc2ccccc2)NC(=O)OCc2cncs2)C(C)C)cs1 [ritonavir]
- Effect on tetraethylammonium accumulation in SLC22A1-overexpressing Hela cells [6]: able to reduce tetraethylammonium accumulation
- SLC22A1 inhibition in vitro [2]: inhibited
